# Source: the supplement of paper PMC11208160
# Assay: recombinant UMI read abundance after kanamycin selection (control-corrected) (log10(CPM+1)); higher = more efficient recombination; extreme values may be limits of the assay; sequences stand for … in AGTGCAGAGAAAATCGGCCAGTTTTCTCTGCCTGCAGTCCGCATGCCGTGGGACCCCTTGGGTTCTAACCTGTTGCCTAGATTTATGCAGCGGACTGCCTTTCTCCCAAAGTGATAAACCGG…AGGTTGGTTTCACT; site = the 11-nt donor
# Experimental: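 Pooled E. coli donor-specificity screen for the IS621 bridge recombinase. Each library member carries a reprogrammed 11-nt donor and a full-length LE bridge RNA expressed in cis from the natural promoter, with a paired donor-binding loop (8-nt LDG + 4-nt RDG) and a target-binding loop fixed to T5. It is co-electroporated with a T5 target plasmid; recombinase is induced with 0.07 mM IPTG and recombinants are selected on kanamycin. UMIs are counted as CPM, averaged over two biological replicates and corrected by the unselected control. Molecule = full bridge RNA written as DNA, built from the T5 scaffold: LDG = donor specificity nt 1-8, RDG = reverse complement of nt 8-11.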
# 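Also: IS621 bridge recombinase in Escherichia coli cells against a fixed T5 target plasmid.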
row,Sequence,recombinant UMI read abundance (log10)
1,AAAACACCATGGACCGGTTTTCCCGGTAATCCGTATTTGCG (site AAAACACCTCG),0.012
2,AAAACCCCATGGACCGGTTTTCCCGGTAATCCGTATTTGGA (site AAAACCCCTTC),0.00874
3,AAAACTACATGGACCGGTTTTCCCGGTAATCCGTATTTGCG (site AAAACTACTCG),1.1
4,AAAAGAACATGGACCGGTTTTCCCGGTAATCCGTATTTGAA (site AAAAGAACTTT),2.03
5,AAAAGACCATGGACCGGTTTTCCCGGTAATCCGTATTTGTA (site AAAAGACCTTA),0
6,AAAAGCACATGGACCGGTTTTCCCGGTAATCCGTATTTGCA (site AAAAGCACTTG),2.36
7,AAACATACATGGACCGGTTTTCCCGGTAATCCGTATTTGTG (site AAACATACTCA),1.38
8,AAACCAGCATGGACCGGTTTTCCCGGTAATCCGTATTTGGC (site AAACCAGCTGC),0
9,AAAGCTCCATGGACCGGTTTTCCCGGTAATCCGTATTTGCG (site AAAGCTCCTCG),0.472
10,AAAGCTTCATGGACCGGTTTTCCCGGTAATCCGTATTTGGG (site AAAGCTTCTCC),0.447
11,AAAGGGGCATGGACCGGTTTTCCCGGTAATCCGTATTTGGG (site AAAGGGGCTCC),0
12,AAAGTAGCATGGACCGGTTTTCCCGGTAATCCGTATTTGGC (site AAAGTAGCTGC),2.01
13,AAAGTCACATGGACCGGTTTTCCCGGTAATCCGTATTTGAC (site AAAGTCACTGT),2.44
14,AAATATTCATGGACCGGTTTTCCCGGTAATCCGTATTTGGG (site AAATATTCTCC),0.372
15,AAATCAGCATGGACCGGTTTTCCCGGTAATCCGTATTTGTT (site AAATCAGCTAA),0.425
16,AAATCGTCATGGACCGGTTTTCCCGGTAATCCGTATTTGCT (site AAATCGTCTAG),2.36

row,Sequence,recombinant UMI read abundance (log10)
1,AACAGACCATGGACCGGTTTTCCCGGTAATCCGTATTTGCG (site AACAGACCTCG),0
2,AACAGACCATGGACCGGTTTTCCCGGTAATCCGTATTTGTA (site AACAGACCTTA),1.25
3,AACAGCCCATGGACCGGTTTTCCCGGTAATCCGTATTTGCA (site AACAGCCCTTG),0.756
4,AACAGCGCATGGACCGGTTTTCCCGGTAATCCGTATTTGAC (site AACAGCGCTGT),2
5,AACATGCCATGGACCGGTTTTCCCGGTAATCCGTATTTGCT (site AACATGCCTAG),1.43
6,AACCAAACATGGACCGGTTTTCCCGGTAATCCGTATTTGAA (site AACCAAACTTT),1.31
7,AACCCAACATGGACCGGTTTTCCCGGTAATCCGTATTTGAC (site AACCCAACTGT),2.68
8,AACCGACCATGGACCGGTTTTCCCGGTAATCCGTATTTGAT (site AACCGACCTAT),0.0205
9,AACCGACCATGGACCGGTTTTCCCGGTAATCCGTATTTGAT (site AACCGCCCTAT),0
10,AACCGACCATGGACCGGTTTTCCCGGTAATCCGTATTTGAT (site AACCGGCCTAT),0.0183
11,AACCGACCATGGACCGGTTTTCCCGGTAATCCGTATTTGAT (site AACCGTCCTAT),0.0119
12,AACCGTGCATGGACCGGTTTTCCCGGTAATCCGTATTTGTG (site AACCGTGCTCA),0.0421
13,AACCTTCCATGGACCGGTTTTCCCGGTAATCCGTATTTGAT (site AACCATCCTAT),0.00673
14,AACCTTCCATGGACCGGTTTTCCCGGTAATCCGTATTTGAT (site AACCCTCCTAT),0.0165
15,AACCTTCCATGGACCGGTTTTCCCGGTAATCCGTATTTGAT (site AACCGTCCTAT),0.0124
16,AACCTTCCATGGACCGGTTTTCCCGGTAATCCGTATTTGAT (site AACCTTCCTAT),0
